# Source: article PMC10388363, “Novel 1,4-Dihydropyridines as Specific Binders and Activators of SIRT3 Impair Cell Viability and Clonogenicity and Downregulate Hypoxia-Induced Targets in Cancer Cells” (Journal of Medicinal Chemistry, 2023)
# Columns and labels:
# [1] = test system: HIF-1α, EPAS-1, and CA-IX protein expression in MDA-MB-231; assay: Western blot of HIF-1α, EPAS-1 and CA-IX in MDA-MB-231 cells under hypoxia; assay type: cell-based, human; details: MDA-MB-231, hypoxia, negative control SIRT3 inhibitor
# Protocol: (§1) Based on these findings, we decided to assess the ability of the SIRT3 activators 3a–d to impair HIF-1α, EPAS-1, and CA-IX protein expression in CAL-62 (Figure 10A–F) and MDA-MB-231 (Figure 11A–F) cell lines treated with the compounds at 50 μM for 48 h and under hypoxia conditions.
# (§2) Breast cancer cell line MDA-MB-231, anaplastic thyroid cancer cell line CAL-62 and human keratinocytes HaCaT were purchased from ATCC and were cultured in RPMI 1640 medium (R0883 Sigma Aldrich-MERCK) (MDA-MB-231 and CAL-62) or DMEM medium (11965092, Gibco) supplemented with 10% fetal bovine serum (Sigma-Aldrich-MERCK, F9665), 2 mM glutamine (G7513; Sigma-Aldrich-MERCK), 100 units/mL penicillin and 0.1 mg/mL streptomycin (P0781; Sigma-Aldrich-MERCK). Adherent cells were detached by Trypsin–EDTA solution (TA049; Sigma-Aldrich-MERCK). Cells were maintained at 37 °C in humidified incubator with 5% CO2. Cells were treated with […] (CoCl2) (Merck; C8661) dissolved in distilled, sterile water for 24 h to induce hypoxia (200 μM). Hypoxic and normoxic cells were also treated with 10/50 μM of the indicated compounds (dissolved in DMSO) for 48 h, maintaining the CoCl2 in the culture medium for hypoxic conditions. SIRT3 inhibitor 3-TYP was dissolved in DMSO and added to a final concentration of 1 μM for 24 and/or 48 h.
# (§3) The following antibodies were used in this study: ACTB (Merck; A5316), HIF1-α (Cell Signaling; 14179), HIF2/EPAS-1 (Santa Cruz Biotechnology sc-13596), HXKII (Santa Cruz Biotechnology sc-6521), CAIX (Novus Biotechnology NB100-417), SIRT3 (Cell Signaling; 2627S), MnSOD (Abcam ab13533), MnSOD K68 (Abcam ab137037), MnSOD K122 (Abcam ab214675), peroxidase-conjugated AffiniPure Goat Anti-Rabbit IgG (H + L) (Jackson ImmunoResearch; 111-035-003), and peroxidase-conjugated AffiniPure Goat Anti-Mouse IgG (H + L) (Jackson ImmunoResearch; 115-035-062).
# (§4) Treated and untreated cells were collected and centrifuged at 3000 rpm for 5 min. After removing the supernatant, cells were lysed in 70 μL of lysis buffer containing: 50 mM Tris-Cl (Merck; 93352), 250 mM sodium chloride (NaCl, Merck; S7653), 5 mM ethylenediaminetetraacetic acid (EDTA; Merck; E6758), 0.1% Triton X-100 and 0.1 mM dithiothreitol (Merck; D9163) plus 1 mM phenylmethylsulfonyl fluoride (PMSF, Merck; 93482), protease inhibitor cocktail (PI; Merck; P8340), 1 mM sodium orthovanadate (NA3VO4, Merck; S6508), and 10 mM sodium fluoride (NaF, Merck; 201154) (lysis buffer). After 30 min on ice, samples were centrifuged at 13,000 rpm for 10 min at 4 °C, and the supernatants collected. Protein concentration was determined by the Bradford assay (Bio-Rad; 500-0205). The equivalent of 15 or 50 μg of protein was boiled for 5 min, electrophoresed onto denaturing SDS-PAGE gel, and transferred onto a […] nitrocellulose membrane (Bio-Rad; 162-0115). After blocking with 5% milk, membranes were incubated with the appropriate primary antibody overnight. The next day, after three washes with 0.1% Tween 20 (Merck; P9416) in PBS (PBST) for 30 min at rt, membranes were incubated with the appropriate secondary antibody for 1 h at rt. After three more washes in PBST, the detection of the relevant protein was assessed by enhanced chemiluminescence (Lite Ablot TURBO, Euro-Clone; EMP012001). Densitometric analysis of the bands, relative to ACTB, was performed using ImageJ Software v1.51 (NIH, Bethesda, MD, USA).
# [2] = test system: HIF-1α, EPAS-1, and CA-IX protein expression in CAL-62; assay: Western blot of HIF-1α, EPAS-1 and CA-IX in CAL-62 cells under hypoxia; assay type: cell-based
# Protocol: as §1, §2, §3, §4
# [3] = test system: acK68- and acK122-MnSOD in CAL-62 cells; assay: Western blot of MnSOD acK68 and acK122 marks in CAL-62 cells; assay type: cell-based; details: CAL-62, negative control SIRT3 inhibitor
# Protocol: (§5) K68-MnSOD acetylation promotes a transformation-permissive phenotype, leading to a chemotherapy-resistant breast cancer cell model using cisplatin and doxorubicin.[68] […] The specific SIRT3 inhibitor 3-TYP was utilized as negative control.
# as §2, with “Hypoxic and normoxic cells were also treated with 10/50 μM of the indicated compounds (dissolved in DMSO) for 48 h, maintaining the CoCl2 in the culture medium for hypoxic conditions. SIRT3 inhibitor 3-TYP was dissolved in DMSO and added to a final concentration of 1 μM for 24 and/or 48 h.” left out
# (§6) Treated and untreated cells were collected and centrifuged at 3000 rpm for 5 min. […] Protein concentration was determined by the Bradford assay (Bio-Rad; 500-0205). […] After three more washes in PBST, the detection of the relevant protein was assessed by enhanced chemiluminescence (Lite Ablot TURBO, Euro-Clone; EMP012001). […]
# [4] = test system: acK68- and acK122-MnSOD in MDA-MB-231 cells; assay: Western blot of MnSOD acK68 and acK122 marks in MDA-MB-231 cells; assay type: cell-based, human; details: MDA-MB-231, negative control SIRT3 inhibitor
# Protocol: as §5
# as §2, with “Hypoxic and normoxic cells were also treated with 10/50 μM of the indicated compounds (dissolved in DMSO) for 48 h, maintaining the CoCl2 in the culture medium for hypoxic conditions. SIRT3 inhibitor 3-TYP was dissolved in DMSO and added to a final concentration of 1 μM for 24 and/or 48 h.” left out
# as §3, §6
# human SIRT3 [5] = target: T1, human SIRT3 (Homo sapiens, UniProt Q9NTG7); assay: Surface plasmon resonance binding assay, immobilized SIRT3; details: SPR, Scatchard analysis, analytes 5-80 μM
# T1 construct: pET151D/Topo (Sirt3-114-380 and Sirt5-34-302); His tag (N, cleaved yes); made in house; host or cells: Escherichia coli
# T1 sequence (Q9NTG7 114-380): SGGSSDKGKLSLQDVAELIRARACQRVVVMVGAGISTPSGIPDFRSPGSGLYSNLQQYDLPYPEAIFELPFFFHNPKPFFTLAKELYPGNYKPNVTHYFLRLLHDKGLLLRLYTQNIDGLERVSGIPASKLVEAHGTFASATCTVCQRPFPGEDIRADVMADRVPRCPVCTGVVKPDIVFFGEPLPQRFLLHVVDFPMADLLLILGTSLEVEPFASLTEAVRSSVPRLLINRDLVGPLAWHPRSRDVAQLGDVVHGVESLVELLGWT
# Protocol: Next, surface plasmon resonance (SPR) experiments were conducted with selected SIRT3 activators 2e and 3a–d to ascertain their biophysical interaction with the human SIRT3 protein. Their parental compounds 2 and 3, together with honokiol, were used as positive controls. The experiments were carried out twice at different concentrations (5, 10, 20, 40, and 80 μM), by injecting the compounds at increasing doses (Figure 5). The resonance units (RU) increase with respect to baseline indicates the formation of the SIRT3/ligand complex, the plateau region represents the steady-state phase of the interaction (RUeq, RU at equilibrium) and the decrease in RU after 180 s represents dissociation of analytes from the immobilized SIRT3 protein after injection of the buffer.
# SPR experiments were carried out using a SensiQ Pioneer system (SensiQ, Oklahoma City, OK, USA), essentially as in Genovese et al. 2020[84] and in Battista et al. 2021,[85] with some modifications, as follows.
# The sensor chip (COOH5) was chemically activated by a 35 μL injection of a 1:1 mixture of […] (200 mM) and N-hydroxysuccinimide (50 mM) at a flow rate of 5 μL/min. Sirtuin3 (ligand) was immobilized on activated sensor chips via amine coupling. Immobilization was carried out in 20 mM sodium acetate at pH 4.0; unreacted groups were blocked by injecting 1 M ethanolamine hydrochloride (35 μL). Sirtuin3 immobilization level obtained was 1500–4000 RU.
# The analytes, dissolved in 100% DMSO at 10 mM concentration, were diluted in buffer 20 mM Hepes, 150 mM NaCl, 0.005% surfactant P20 buffer (HBSP) to a concentration of 200 μM (2% final DMSO concentration), further diluted in HBSP + 2% DMSO (HBSP2%D) and injected on the sensor chip at a constant flow rate (nominal flow rate = 30 μL/min) at the following concentrations: 5, 10, 20, 40, and 80 μM.
# The RU increase relative to baseline indicates complex formation (taking place at known analytes concentrations at each moment in the gradient); the plateau region represents the steady-state phase of the interaction (RUeq); and the decrease in RU after 180 s represents dissociation of analytes from the immobilized Sirtiun3 after injection of HBSP2%D. Regeneration procedures are based on two long (2000 and 500 s) injections of buffer, separated by a brief (5 s) injection of 10 mM NaOH.
# Control experiments were performed in sensor chips treated as described above in the absence of an immobilized ligand. Kinetic evaluation of the sensorgrams was obtained using the SensiQ Qdat program and full fitting with 1, 2, and 3 sites; Scatchard analysis was used to determine apparent KD values.
# human SIRT3 [6] = target: T1, human SIRT3; set-up: method as in PMID 36228194; details: 100 μM; cited from earlier work
# [7] = test system: GDH activity in MDA-MB-231 cells; assay: GDH activity assay in lysates of treated MDA-MB-231 cells; assay type: cell-based, human; details: 50 μM, 4 h
# Protocol: Selected compounds 3a–d were tested in triple-negative breast cancer MDA-MB-231 cells to evaluate their effects on SIRT3 physiological substrates. First, the effect on the activity of GDH (an established SIRT3 substrate activated through deacetylation[60]−[62]) was investigated by a coupled enzyme assay. […] These effects of SIRT3 activators clearly phenocopied those observed in the SIRT3-overexpressing MDA-MB-231 cells (SIRT3^+) (Figure 6).
# GDH activity in cells treated or not with the SIRT3 activators 3a–d and the reference compounds 2 and 3 was measured using a GDH activity assay kit (MAK099, Merck) following the manufacturer’s instructions. Briefly, 10^6 cells were lysed in 40 μL of GDH assay buffer and kept for 10 min in ice. Afterward, lysates were centrifuged to collect supernatants. Ten microliters of supernatant were added to 40 μL of GDH buffer and 100 μL of a mix containing GDH assay buffer, developer, and glutamate. The whole mix was transferred into a 96-well plate and incubated at 37 °C for 3 min. Finally, absorbance was read at 450 nm using a GloMax multi detection system (Promega, Milan, Italy). The absorbance of the assay buffer was subtracted from each experimental sample.
structure (smiles),measurement,setting,value
"c1cncc(-c2cnn[nH]2)c1 [3-TYP, reference compound]","HIF-1α, EPAS-1, and CA-IX protein expression",[1],did not show any activity
same,"HIF-1α, EPAS-1, and CA-IX protein expression","[2]; CAL-62, hypoxia, negative control SIRT3 inhibitor",negligible effects
same,acetylation levels of both K68 and K122 residues of MnSOD,[3],markedly increased
same,acetylation levels of both K68 and K122 residues of MnSOD,[4],markedly increased
CCOC(=O)C1=CN(C(=O)c2cc(OC)c(OC)c(OC)c2)C=C(C(=O)OCC)C1c1ccccc1 [Compound 3],Kd,human SIRT3 [5],40 to 47 µM
same,SIRT3 activation,human SIRT3 [6],over 400%
same,GDH activation,[7],around 175%
C=CCc1ccc(O)c(-c2ccc(O)c(CC=C)c2)c1 [honokiol],Kd,human SIRT3 [5],40 to 47 µM
"CCOC(=O)C1=CN(C(=O)c2ccc(OC)cc2)C=C(C(=O)OCC)C1c1ccccc1 [Compound 3b, Diethyl 1-(4-methoxybenzoyl)-4-phenyl-1,4-dihydropyridine-3,5-dicarboxylate]",CA-IX protein expression,"[2]; CAL-62, 50 μM, 48 h, hypoxia",significantly downregulated
same,effect on GDH activity in cell lysates,[7],negligible effect
